Measurements published in article PMC5672024, “Selective Glucocorticoid Receptor Properties of GSK866 Analogs with Cysteine Reactive Warheads” (Frontiers in Immunology, 2017).

Columns and labels:
recombinant GR-LBD (hGR) = assay: Mass spectrometry of tryptic peptides of recombinant GR-LBD after ligand incubation (covalent binding); parameters: species or system human; conditions: 2 h at 37°C, trypsin digestion, LC-MS/MS
Method: Recombinant His6-MBP-mCaspase3 site-LBD-hGR was expressed in the Escherichia coli strain BL21codon + pICA2 that was transformed with the corresponding pLHM36LBD-hGR plasmid and in which expression was induced by Isopropyl β-D-1-thiogalactopyranoside (IPTG) under control of a pL-promotor. The transformed bacteria were grown in Luria Bertani medium supplemented with ampicillin (100 µg/ml) and kanamycin (50 µg/ml) overnight at 28°C before 1/100 inoculation in 12 × 0.5 l provided with Luria Bertani medium supplemented with ampicillin (100 µg/ml) and 1% glycerol in a shaker incubator. The cells were grown to an optical density at AU 600 nm of 0.65, transferred to 20°C and expression was induced by addition of 1 mM IPTG overnight. Cells were then harvested and frozen at −20°C. […] After thawing, the cells were re-suspended at 3 ml/g in cold 20 mM Tris-HCl pH 7.4, 200 mM NaCl, 1 mM EDTA, 1 tablet complete protease inhibitor cocktail from Roche/50 ml, and 10 mM β-mercaptoethanol. The cytoplasmic fraction was prepared by sonication of the cells on ice and isolated by centrifugation at 18,000 × g for 30 min. All further purification steps were conducted at 4°C. The clear supernatant was applied to an amylase column (BioLabs, XK26 × 20, 100 ml), equilibrated with 20 mM Tris–HCl pH 7.4, 200 mM NaCl, 1 mM EDTA, and 10 mM β-mercaptoethanol. The column was eluted with 20 mM Tris–HCl pH 7.4, 200 mM NaCl, 1 mM EDTA, 10 mM maltose, and 10 mM β-mercaptoethanol. […] Recombinant purified His-MBP-DEVD-GR-LBD fusion protein was dissolved at a concentration of 1 mg in 1.7 ml PBS buffer.
Each aliquot was incubated 2 h at 37°C. […] 120 µl of each sample was loaded onto a spin column and the flow-through was collected (1,500 × g, 2 min). Trypsin (5 µl of 20 mM stock solution) was added, and the samples were incubated 20 h at 37°C. Then, 0.1% FA (formic acid) (41.5 µl) and 20 mM TCEP in 0.1% FA (18.5 µl, 5.7 mg TCEP/ml) were added [final volume = 185 µl, final concentration TCEP = 2 mM, 1 µg material/2.5 μl], and the samples were subjected to LC–MS/MS analysis.
The obtained peptide mixtures were introduced onto an LC–MS/MS system; the Ultimate 3000 RSLC nano (Dionex, Amsterdam, The Netherlands) in-line connected to an LTQ-Orbitrap Velos (Thermo Fisher Scientific, Bremen, Germany). The sample mixture was loaded on a trapping column [made in-house, 100 µm internal diameter (I.D.) × 20 mm, 5 µm C18 beads (Reprosil-HD, Dr. Maisch)]. After back flushing from the trapping column, the sample was loaded on a reverse-phase column [made in-house, 75 µm I.D. × 150 mm, 5 µm C18 beads (Reprosil-HD, Dr. Maisch)].
The mass spectrometer was operated in data-dependent mode, automatically switching between MS and MS/MS acquisition for the 10 most abundant peaks in a given MS spectrum. […]

[1] = test system: GR transactivation, p(GRE)2-50-luc reporter in HaCat cells; assay: p(GRE)2-50-luc reporter gene assay (GR transactivation); type: cell-based; conditions: 6 h, 10 nM
Method: In order to compare transactivation and transrepression potencies of the different synthesized GSK866 analogs, we performed GRE- and NFκB-luciferase-dependent reporter gene studies in stable transfected cell lines, as previously described ([3], [8]). HaCat cells expressing p(GRE)2 50-Luc and L929sA cells expressing p(GRE)250-Luc or p(NFκB)350-Luc were cultured in DMEM medium with 1% L-glutamine, supplemented with 10% feral bovine serum (FBS), 100 µg/ml streptomycin, and 100 IU/mL penicillin in a humidified 5% CO2 atmosphere. Cells were passaged every 2 days at a dilution of 1:6. Reporter gene cells were plated at a density of 0.5 × 10^5 cells/well in 24 well plates and grown overnight. p(GRE)250-Luc-dependent reporter gene cells were treated with solvent (DMSO) or compound (100 fM, 1 nM, 10 nM, 100 nM, and 1 µM) for 6 h, whereas in case of p(NFκB)350-Luc, TNF (2,500 IU/mL) was added 2 h following compound treatment. After incubation with the compounds, medium was removed and cells were washed twice with PBS followed by adding 100 µl of 1× lysis buffer (0.2 M K2HPO4, 0.2 M KH2PO4, Triton X-100, pH 7.6). 25 µl of lysate was assayed for luciferase activity by adding 50 µl of luciferase assay substrate (1 mM luciferin or luciferin salt, 3 mM ATP, and 15 mM MgSO4 in 30 mM HEPES buffer, pH 7.8) followed by 10 s mixing and measuring 1 s bioluminescence using an Envision multilabel reader (Perkin Elmer).
Figure 3 Selective glucocorticoid receptor agonist GSK866 analogs UAMC-1217, UAMC-1218 but not UAMC-1158 and UAMC-1159 elicit selective glucocorticoid receptor-transactivation and NFκB-transrepression properties. Glucocorticoid response element (GRE)- and NFκB-luciferase-dependent reporter gene assays were performed in L929sA and HaCat reporter cells which were stably transfected with, respectively, p(NFκB)3-50luc or p(GRE)2-50-luc constructs. For p(GRE)2-50-luc reporter assays, cells were solvent-treated or induced with different concentrations of Dex (A), Dex-mesylate (Dex-Mes) (A), SEGRA GSK866 (C) or analogs UAMC-1158 (D), UAMC-1159 (E), UAMC-1217 (F), and UAMC-1218 (G) as indicated for a total exposure time of 6 h, whereas cells were cotreated for TNF (2,500 IU/ml) in the last 4 h for p(NFkB)3-50luc reporter assays (B–G). Corresponding lysates were assayed for luciferase activities and normalized for protein content as described in the Section “Materials and Methods.” Promoter activities are expressed as relative induction factor (± standard deviation) i.e., the ratio of expression levels recorded either at induced and non-induced conditions, with the latter taken to be 1.

Modifications: GR-LBD cysteine-containing peptide covalently bound (recombinant GR-LBD (hGR)): Cys-622
Modifications: GR-LBD cysteine-containing peptide covalently bound (recombinant GR-LBD (hGR); listed as 1217): Peptide 615–633 → C622
SMILES: CCN(C[C@@](O)(CNC(=O)c1cnn(-c2ccc(F)cc2)c1N)C(F)(F)F)C(=O)c1c(Cl)ccc(NC(=O)CCl)c1Cl [UAMC-1217]
GR transactivation in GRE-luc reporter at 10 nM [1]: significantly reduced GR transactivation to levels below transactivation observed with 10 nM of Dex
